Experimental data: patent US8829026B2, “Sulfamoyl benzoic acid heterobicyclic derivatives as TRPM8 antagonists” (RaQualia Pharma Inc., priority 2010, dated 2014)

Molecular target: T1, human TRPM8 (Homo sapiens, UniProt Q7Z2W7)
T1 construct: expressed in transfected cells
Assay: Menthol-induced Ca2+ influx in HEK293 cells stably expressing human TRPM8
Type: cell-based
Conditions: 30 microM menthol-induced Ca2+ influx, HEK293 cells stably expressing human TRPM8, 11-point dose-response
Experimental: Measurement of the Menthol-Induced Ca^2+ Influx in HEK293 Cells Stably Expressing Human TRPM8
A cell-based Ca^2+ influx assay using HEK293 cells stably expressing human TRPM8 was used to identify the activity of compounds.
HEK293 cells stably expressing human TRPM8 were grown in T175 flasks at 37° C. in a 5% CO2 humidified incubator to about 80% confluence. Media composition consisted of Dulbecco's Modified Eagle Medium (high glucose), 10% fetal calf serum (FCS), 100 units/ml Penicillin, 100 microg/ml Streptomycin and 600 microg/ml Geneticine. At 24 hours prior to assay, cells were seeded in poly-D-lysine coated 384-well plates (BD FALCON) at a density of 30,000 cells per well in culture medium and grown overnight in 5% CO2 at 37° C. On the assay day, growth media was removed and cells were loaded with 0.5 microM Fluo4-AM (Molecular Probes) and 0.005% Pluronic F-127 dissolved in assay buffer (Hank's balanced salt solution (HBSS), 19.4 mM HEPES pH7.4, 2.5 mM Probenecid) for 1 hour at room temperature. After washing with assay buffer, the cells were preincubated with various concentrations of the compounds for 5 min. The changes in intracellular calcium concentration by addition of 30 microM menthol were monitored by the cell imaging technology by Hamamatsu Photonics's Functional Drug Screening System (FDSS).
The IC50 values for compounds of the present invention were determined from 11-point dose-response studies. Curves were generated using the average of duplicate wells for each data point. Finally, the IC50 values are calculated with the best-fit dose curve determined by XLfit (ID Business Solutions Ltd.).

T1 sequence (Q7Z2W7 whole entry): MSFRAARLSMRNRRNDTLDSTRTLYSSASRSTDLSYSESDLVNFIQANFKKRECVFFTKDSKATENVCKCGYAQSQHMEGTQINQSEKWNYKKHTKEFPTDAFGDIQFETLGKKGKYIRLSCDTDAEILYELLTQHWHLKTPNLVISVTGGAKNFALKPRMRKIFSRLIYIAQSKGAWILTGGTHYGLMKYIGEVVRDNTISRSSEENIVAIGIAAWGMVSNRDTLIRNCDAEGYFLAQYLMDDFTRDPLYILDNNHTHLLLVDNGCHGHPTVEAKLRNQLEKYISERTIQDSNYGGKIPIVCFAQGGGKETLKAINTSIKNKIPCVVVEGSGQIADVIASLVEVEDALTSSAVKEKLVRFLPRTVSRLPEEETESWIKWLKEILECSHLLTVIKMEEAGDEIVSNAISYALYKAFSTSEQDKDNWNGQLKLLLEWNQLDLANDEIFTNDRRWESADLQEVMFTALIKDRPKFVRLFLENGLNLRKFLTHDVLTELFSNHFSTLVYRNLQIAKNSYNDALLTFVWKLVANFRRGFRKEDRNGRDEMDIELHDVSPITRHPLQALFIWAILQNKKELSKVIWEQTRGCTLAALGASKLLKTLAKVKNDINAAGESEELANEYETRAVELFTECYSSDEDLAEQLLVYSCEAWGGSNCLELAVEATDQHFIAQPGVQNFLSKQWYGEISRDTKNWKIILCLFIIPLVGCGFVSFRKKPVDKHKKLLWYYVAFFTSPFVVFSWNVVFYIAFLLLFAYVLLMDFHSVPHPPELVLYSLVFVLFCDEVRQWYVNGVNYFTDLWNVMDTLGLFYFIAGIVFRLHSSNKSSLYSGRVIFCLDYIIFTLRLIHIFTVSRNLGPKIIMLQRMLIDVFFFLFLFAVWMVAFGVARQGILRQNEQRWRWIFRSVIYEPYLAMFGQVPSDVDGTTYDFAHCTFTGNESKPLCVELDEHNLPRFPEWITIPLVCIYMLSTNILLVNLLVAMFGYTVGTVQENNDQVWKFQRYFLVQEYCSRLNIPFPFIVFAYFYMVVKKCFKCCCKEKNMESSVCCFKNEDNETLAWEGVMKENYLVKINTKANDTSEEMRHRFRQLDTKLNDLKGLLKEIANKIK

SMILES	IC50 [µM]
O=C(O)c1ccc(S(=O)(=O)N(Cc2ccc3occc3c2)c2ncc(Cl)cc2Cl)cc1 [Example 5, 4-(N-(Benzofuran-5-ylmethyl)-N-(3,5-dichloropyridin-2-yl)sulfamoyl)benzoic acid]	< 1
Cn1ccc2cc(CN(c3ncc(Cl)cc3Cl)S(=O)(=O)c3ccc(C(=O)O)cc3)ccc21 [Example 7, 4-(N-(3,5-Dichloropyridin-2-yl)-N-((1-methyl-1H-indol-5-yl)methyl)sulfamoyl)benzoic acid]	< 1
Cn1ccc2cc(CN(c3ncc(C(F)(F)F)cc3Cl)S(=O)(=O)c3ccc(C(=O)O)cc3Cl)ccc21 [Example 8, 3-Chloro-4-(N-(3-chloro-5-(trifluoromethyl)pyridin-2-yl)-N-((1-methyl-1H-indol-5-yl)methyl)sulfamoyl)benzoic acid]	< 1
Cn1ccc2cc(CN(c3ncc(Cl)cc3Cl)S(=O)(=O)c3ccc(C(=O)O)cc3Cl)ccc21 [Example 9, 3-Chloro-4-(N-(3,5-dichloropyridin-2-yl)-N-((1-methyl-1H-indol-5-yl)methyl)sulfamoyl)benzoic acid]	< 1
O=C(O)c1ccc(S(=O)(=O)N(Cc2ccc3ccoc3c2)c2ncc(Cl)cc2Cl)cc1 [Example 10, 4-(N-(Benzofuran-6-ylmethyl)-N-(3,5-dichloropyridin-2-yl)sulfamoyl)benzoic acid]	< 1
Cc1cc(C(=O)O)ccc1S(=O)(=O)N(Cc1ccc2c(ccn2C)c1)c1ncc(C(F)(F)F)cc1Cl [Example 11, 4-(N-(3-Chloro-5-(trifluoromethyl)pyridin-2-yl)-N-((1-methyl-1H-indol-5-yl)methyl)sulfamoyl)-3-methylbenzoic acid]	< 1
Cc1cc(C(=O)O)ccc1S(=O)(=O)N(Cc1ccc2c(ccn2C)c1)c1ncc(Cl)cc1Cl [Example 12, 4-(N-(3,5-Dichloropyridin-2-yl)-N-((1-methyl-1H-indol-5-yl)methyl)sulfamoyl)-3-methylbenzoic acid]	< 1
CCc1cc(C(=O)O)ccc1S(=O)(=O)N(Cc1ccc2c(cnn2C)c1)c1ncc(Cl)cc1Cl [Example 23, 4-(N-(3,5-Dichloropyridin-2-yl)-N-((1-methyl-1H-indazol-5-yl)methyl)sulfamoyl)-3-ethylbenzoic acid]	< 1
Cn1ncc2cc(CN(c3ncc(Cl)cc3Cl)S(=O)(=O)c3ccc(C(=O)O)cc3Cl)ccc21 [Example 24, 3-Chloro-4-(N-(3,5-dichloropyridin-2-yl)-N-((1-methyl-1H-indazol-5-yl)methyl)sulfamoyl)benzoic acid]	< 1
Cc1cc(C(=O)O)ccc1S(=O)(=O)N(Cc1ccc2c(cnn2C)c1)c1ncc(Cl)cc1Cl [Example 27, 4-(N-(3,5-Dichloropyridin-2-yl)-N-((1-methyl-1H-indazol-5-yl)methyl)sulfamoyl)-3-methylbenzoic acid]	< 1
O=C(O)c1ccc(S(=O)(=O)N(Cc2ccc3c(cnn3C3CC3)c2)c2ncc(Cl)cc2Cl)cc1 [Example 29, 4-(N-((1-Cyclopropyl-1H-indazol-5-yl)methyl)-N-(3,5-dichloropyridin-2-yl)sulfamoyl)benzoic acid]	< 1
O=C(O)c1ccc(S(=O)(=O)N(Cc2ccc3c(cnn3C3CC3)c2)c2ncc(C(F)(F)F)cc2Cl)c(Cl)c1 [Example 31, 3-Chloro-4-(N-(3-chloro-5-(trifluoromethyl)pyridin-2-yl)-N-((1-cyclopropyl-1H-indazol-5-yl)methyl)sulfamoyl)benzoic acid]	< 1
O=C(O)c1ccc(S(=O)(=O)N(Cc2ccc3c(cnn3C3CC3)c2)c2ncc(Cl)cc2Cl)c(Cl)c1 [Example 32, 3-Chloro-4-(N-((1-cyclopropyl-1H-indazol-5-yl)methyl)-N-(3,5-dichloropyridin-2-yl)sulfamoyl)benzoic acid]	< 1
Cc1cc(C(=O)O)ccc1S(=O)(=O)N(Cc1ccc2c(cnn2C2CC2)c1)c1ncc(C(F)(F)F)cc1Cl [Example 33, 4-(N-(3-Chloro-5-(trifluoromethyl)pyridin-2-yl)-N-((1-cyclopropyl-1H-indazol-5-yl)methyl)sulfamoyl)-3-methylbenzoic acid]	< 1

Second part, the molecule after the results:

IC50 [µM]	SMILES
< 1	Cn1ncc2cc(CN(c3ncc(C(F)(F)F)cc3Cl)S(=O)(=O)c3ccc(C(=O)O)cc3)ccc21 [Example 3, 4-(N-(3-Chloro-5-(trifluoromethyl)pyridin-2-yl)-N-((1-methyl-1H-indazol-5-yl)methyl)sulfamoyl)benzoic acid]
< 1	CCc1cc(C(=O)O)ccc1S(=O)(=O)N(Cc1ccc2c(cnn2C)c1)c1ncc(C(F)(F)F)cc1Cl [Example 4, 4-(N-(3-Chloro-5-(trifluoromethyl)pyridin-2-yl)-N-((1-methyl-1H-indazol-5-yl)methyl)sulfamoyl)-3-ethylbenzoic acid]
< 1	Cn1ccc2cc(CN(c3ncc(C(F)(F)F)cc3Cl)S(=O)(=O)c3ccc(C(=O)O)cc3)ccc21 [Example 6, 4-(N-(3-Chloro-5-(trifluoromethyl)pyridin-2-yl)-N-((1-methyl-1H-indol-5-yl)methyl)sulfamoyl)benzoic acid]
< 1	CCn1cc2cc(CN(c3ncc(C(F)(F)F)cc3Cl)S(=O)(=O)c3ccc(C(=O)O)cc3)ccc2n1 [Example 13, 4-(N-(3-Chloro-5-(trifluoromethyl)pyridin-2-yl)-N-((2-ethyl-2H-indazol-5-yl)methyl)sulfamoyl)benzoic acid]
< 1	CCn1ncc2cc(CN(c3ncc(C(F)(F)F)cc3Cl)S(=O)(=O)c3ccc(C(=O)O)cc3Cl)ccc21 [Example 14, 3-Chloro-4-(N-(3-chloro-5-(trifluoromethyl)pyridin-2-yl)-N-((1-ethyl-1H-indazol-5-yl)methyl)sulfamoyl)benzoic acid]
1 to 10	Cn1cc2cc(CN(c3ncc(C(F)(F)F)cc3Cl)S(=O)(=O)c3ccc(C(=O)O)cc3)ccc2n1 [Example 16, 4-(N-(3-Chloro-5-(trifluoromethyl)pyridin-2-yl)-N-((2-methyl-2H-indazol-5-yl)methyl)sulfamoyl)benzoic acid]
< 1	Cn1ncc2ccc(CN(c3ncc(C(F)(F)F)cc3Cl)S(=O)(=O)c3ccc(C(=O)O)cc3)cc21 [Example 17, 4-(N-(3-Chloro-5-(trifluoromethyl)pyridin-2-yl)-N-((1-methyl-1H-indazol-6-yl)methyl)sulfamoyl)benzoic acid]
1 to 10	Cn1cc2ccc(CN(c3ncc(C(F)(F)F)cc3Cl)S(=O)(=O)c3ccc(C(=O)O)cc3)cc2n1 [Example 18, 4-(N-(3-Chloro-5-(trifluoromethyl)pyridin-2-yl)-N-((2-methyl-2H-indazol-6-yl)methyl)sulfamoyl)benzoic acid]
< 1	CCn1ncc2cc(CN(c3ncc(Cl)cc3Cl)S(=O)(=O)c3ccc(C(=O)O)cc3)ccc21 [Example 19, 4-(N-(3,5-Dichloropyridin-2-yl)-N-((1-ethyl-1H-indazol-5-yl)methyl)sulfamoyl)benzoic acid]
< 1	COCCn1ncc2cc(CN(c3ncc(C(F)(F)F)cc3Cl)S(=O)(=O)c3ccc(C(=O)O)cc3)ccc21 [Example 20, 4-(N-(3-Chloro-5-(trifluoromethyl)pyridin-2-yl)-N-((1-(2-methoxyethyl)-1H-indazol-5-yl)methyl)sulfamoyl)benzoic acid]
< 1	O=C(O)c1ccc(S(=O)(=O)N(Cc2ccc3c(cnn3C3CCOCC3)c2)c2ncc(C(F)(F)F)cc2Cl)cc1 [Example 21, 4-(N-(3-Chloro-5-(trifluoromethyl)pyridin-2-yl)-N-((1-(tetrahydro-2H-pyran-4-yl)-1H-indazol-5-yl)methyl)sulfamoyl)benzoic acid]
1 to 10	CC(C)(O)Cn1ncc2cc(CN(c3ncc(C(F)(F)F)cc3Cl)S(=O)(=O)c3ccc(C(=O)O)cc3)ccc21 [Example 22, 4-(N-(3-Chloro-5-(trifluoromethyl)pyridin-2-yl)-N-((1-(2-hydroxy-2-methylpropyl)-1H-indazol-5-yl)methyl)sulfamoyl)benzoic acid]
< 1	Cn1ncc2cc(CN(c3ncc(C(F)(F)F)cc3Cl)S(=O)(=O)c3ccc(C(=O)O)cc3Cl)ccc21 [Example 25, 3-Chloro-4-(N-(3-chloro-5-(trifluoromethyl)pyridin-2-yl)-N-((1-methyl-1H-indazol-5-yl)methyl)sulfamoyl)benzoic acid]
< 1	Cc1cc(C(=O)O)ccc1S(=O)(=O)N(Cc1ccc2c(cnn2C)c1)c1ncc(C(F)(F)F)cc1Cl [Example 26, 4-(N-(3-Chloro-5-(trifluoromethyl)pyridin-2-yl)-N-((1-methyl-1H-indazol-5-yl)methyl)sulfamoyl)-3-methylbenzoic acid]
< 1	O=C(O)c1ccc(S(=O)(=O)N(Cc2ccc3c(cnn3C3CC3)c2)c2ncc(C(F)(F)F)cc2Cl)cc1 [Example 28, 4-(N-(3-Chloro-5-(trifluoromethyl)pyridin-2-yl)-N-((1-cyclopropyl-1H-indazol-5-yl)methyl)sulfamoyl)benzoic acid]
1 to 10	Cn1nnc2cc(CN(c3ncc(C(F)(F)F)cc3Cl)S(=O)(=O)c3ccc(C(=O)O)cc3)ccc21 [Example 30, 4-(N-(3-Chloro-5-(trifluoromethyl)pyridin-2-yl)-N-((1-methyl-1H-benzo[d][1,2,3]triazol-5-yl)methyl)sulfamoyl)benzoic acid]
